In patent EP4810497A1, “ISOQUINOLINE DERIVATIVE, SYNTHESIS METHOD THEREFOR, AND USE THEREOF” (Harbin Gloria Pharmaceuticals Co., Ltd., priority 2023, dated 2025):
Like-named read-outs stand apart in the source and are kept apart here.

Key:
[1] = biological target: T1, Pgk1 (Homo sapiens, UniProt P00558); test: Affinity for Pgk1 protein (Biacore T200 chip); format: binding; settings: for Rmax: amount of drug bound to the target protein when the affinity was detected
T1 sequence (P00558 1-417): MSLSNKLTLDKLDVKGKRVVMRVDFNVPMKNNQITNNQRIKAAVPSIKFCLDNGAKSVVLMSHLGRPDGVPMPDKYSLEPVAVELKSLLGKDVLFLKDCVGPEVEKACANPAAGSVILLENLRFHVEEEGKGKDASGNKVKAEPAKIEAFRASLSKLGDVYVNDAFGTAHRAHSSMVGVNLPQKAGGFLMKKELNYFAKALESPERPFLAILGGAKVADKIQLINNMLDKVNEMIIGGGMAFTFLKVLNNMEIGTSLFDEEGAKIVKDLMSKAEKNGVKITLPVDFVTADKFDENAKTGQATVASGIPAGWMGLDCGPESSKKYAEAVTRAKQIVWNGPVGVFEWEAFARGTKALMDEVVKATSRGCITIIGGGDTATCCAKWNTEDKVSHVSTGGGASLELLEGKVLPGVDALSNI
Protocol: Purified Pgk1 protein (with a concentration of 1 mg/mL) was immobilized on a Biacore T200 chip. […] The obtained curves can calculate parameters such as affinity and Rmax.

[2] = test system: SK-N-SH cells; test: Cellular ATP levels (Promega ATP assay kit); format: cell-based, human; settings: for activity in increasing cellular ATP: SK-N-SH cells, 10 µM, 5% O2, untreated control defined as 1 (FIG. 1); for activity in increasing cellular ATP / optimal dose (cellular ATP levels): 48 hours; for cell growth: 50 µM; for optimal dose (cellular ATP levels): doses of 5 µM, 10 µM and 50 µM
Protocol: Human Neuroblastoma Cell Line (SK-N-SH) is a human-derived neuroblastoma cell line. SK-N-SH cells were seeded in a 6-well plate at a density of 6×10^4 cells per well. The cells were cultured for 12 hours under 5% O2. Various drugs at a concentration of 10 µM were added. After 48 hours, the cells were harvested. Celluar ATP levels were measured using the Promega ATP assay kit. The experiment was repeated 6 times to 10 times. The experimental results were illustrated in FIG. 1. […] T1 to T11 were the experimental groups.
SK-N-SH cells were seeded in a 6-well plate at a density of 6×10^4 per well. Cells were cultured for 12 hours under 5% O2, and the drug was added. Cells were harvested after 48 hours. Cellular ATP levels were measured using a Promega ATP assay kit. The experiment was repeated 5 times to 7 times.

[3] = test system: MPTP-induced Parkinson's disease model mice; test: Rotarod motor ability in MPTP-induced Parkinson's disease model; format: in vivo; settings: day 7 after MPTP injection
Protocol: (§1) Male mice aged 3 months were used and fed normally. The acute MPTP modeling method (see Sonsalla PK, Heikkila RE. The influence of dose and dosing interval on MPTP-induced dopaminergic neurotoxicity in mice. Eur J Pharmacol 1986; 129(3): 339-45.) was employed. MPTP was injected intraperitoneally four times in total at a dose of 20 mg/kg body weight per injection, with a 2-hour interval between each injection. MPTP was dissolved in normal saline, and the control group received an equal dose of normal saline. T2 was dissolved in DMSO and diluted with normal saline to the desired concentration. Accordingly, equal doses of DMSO and normal saline were administered during the treatment. On the day of MPTP model establishment, mice were administered either T2 (treatment group) or DMSO (control group). Subsequently, mice in all groups were administered the corresponding drugs daily. Mouse behavior was tested using a rotarod (E103, UGO BASILE). First, mice were pre-trained for two consecutive days at a constant speed of 15 revolutions per minute (15 rpm) until they could stay on the rod for more than 60 seconds. […] The latency to fall from the rotarod was recorded, and the behavior was monitored by a camera. […] Therefore, whether dopaminergic neurons were damaged can be determined by Western blot assay using an anti-TH antibody.

[4] = test system: Tyrosine hydroxylase (TH); test: Striatal tyrosine hydroxylase Western blot in MPTP-induced Parkinson's disease model; format: in vivo, mice; settings: 0.1 mg/Kg, striatal tissue
Protocol: as §1

[5] = test system: db/db mice; test: Hypoglycemic effect in diabetic model mice, intraperitoneal injection; format: in vivo; settings: 4 hours later
Protocol: Gene knockout db/db mice are a classic model of hyperglycemia and obesity. Under normal feeding conditions, mice aged 3 months or older developed hyperglycemia and obesity. After the mice were provided with only drinking water (fasted) for 6 hours, blood was collected from the tail of the mice to measure blood glucose values. Subsequently, different drugs, including saline (control), liraglutide at 0.6 mg/Kg, low-concentration T6 (T6 low, 0.1 mg/Kg), and high-concentration T6 (T6 high, 0.5 mg/Kg), were injected intraperitoneally. 4 hours later, blood was collected from the tail of the mice to measure the blood glucose levels. Each group consisted of 6 mice. Blood glucose levels before administration (Vbefore) and after administration (Vafter) were obtained for each mouse. The effect of the drug on blood glucose (%) was calculated as follows: (Vbefore−Vafter) × 100/Vbefore . [formula]

[6] = biological target: T1, Pgk1; settings: cited from earlier work
[7] = test system: α1 adrenergic receptor; settings: cited from earlier work
[8] = biological target: T1, Pgk1; test: In vitro biochemical Pgk1 enzymatic activity (NADH production, absorbance 339 nm); set-up: made in house; host or cells: E. coli BL21(DE3); settings: for optimal concentration for activating Pgk1: purified Pgk1-His 2 µg/mL, 10 minutes at room temperature
Protocol: Human Pgk1 cDNA was cloned into the pEASYTM-E2 vector (TransGen Biotech) containing a His tag. Protein expression was induced in BL21(DE3) chemocompetent cells (TransGen Biotech) with 0.5 mM IPTG. After lysing cells in extraction buffer (20 mM sodium phosphate, 500 mM NaCl, 5 mM imidazole, 5% glycerol, protease inhibitor cocktail, pH 7.9), the supernatant was purified with nickel beads (AdarBiotech). The His-tagged Pgk1 was eluted with the elution buffer (20 mM sodium phosphate, 500 mM NaCl, 80 mM imidazole, protease inhibitor cocktail, pH 7.9). The activity of Pgk1 can be measured by monitoring the rate of NADH production, as NADH accumulated as the reaction proceeded. Purified Pgkl-His protein (2 µg/mL) was added to the reaction buffer (20 mM Tris, 100 mM NaCl, 2 mM DTT, 0.1 mM MgSO4, 10 mM NaHPO4, pH 8.6), and the substrates (1.6 mM GAP, 1 mM β-NAD, 1 mM ADP, 20 ng/µL GAPDH) was added. […] After reaction for 10 minutes at room temperature, the absorbance wavelength at 339 nm was measured using a microplate reader (Molecular Devices, SpectraMax i3x), and this wavelength corresponds to NADH levels.

[9] = test system: Wild-type mice (C57BL/6); test: Blood glucose in normal mice in vivo; settings: 0.1 mg/kg intraperitoneally, fasted 6 hours after administration
Protocol: Wild-type mice (C57BL/6) aged 3 months to 4 months under normal feeding conditions were intraperitoneally injected with different drugs at 0.1 mg/kg. Mice injected with normal saline served as the control group. Mice were fasted for 6 hours after administration. Blood was collected from the tail of each mouse to measure blood glucose levels. Each group consisted of 9 mice.

[10] = test system: stable Pgk1-knockdown SK-N-SH cell line; test: Mitochondrial respiration (Seahorse) in Pgk1-knockdown cells; format: cell-based, human; settings: 10 µM, shPgk1 knockdown cells
Protocol: Cellular mitochondrial stress was detected using a Seahorse XFe analyzer (XFe-24, Seahorse Bioscience, Billerica, MA, UAS) to measure the oxygen consumption rate (OCR). SH-SKN cell lines were seeded in a 24-well plate compatible with the Seahorse XFe analyzer. After 24 hours, cells were treated with DMSO (0.01%) or various drugs (10 µM). Cellular mitochondrial stress was detected 12 hours after drug treatment. For the mitochondrial stress test, 97.2 mL of Seahorse basal medium (Seahorse Bioscience, Billerica, MA, UAS) was taken and heated in a water bath to 37°C, and 1 mL of a stock solution was added. The stock solution was prepared by mixing the following solutions: 1 mL of 200 mM L-glutamine solution (Sigma), 1 mL of 100 mM pyruvate solution (Sigma), and 800 µL of 2.5 M glucose solution, and the pH of the stock solution was adjusted to 7.4 with 1 M NaOH solution. Before detection, the probe plate was taken out, and 1 mL of XF Carlibrant solution (Seahorse Bioscience) was added to the probe plate. The plate was then incubated overnight in a CO2-free constant temperature incubator at 37°C. After drug treatment, the cells were removed and washed twice with preheated Seahorse basal medium at 37°C, ensuring that 500 µL of Seahorse basal medium remained in each well. The cells were incubated in a CO2-free constant temperature incubator at 37°C for 1 hour. […]

[11] = test system: db/db mice; test: Long-term hypoglycemic and weight-loss effects in diabetic model mice, drinking water; format: in vivo; settings: 7 days, T6 1.5 mg/kg
Protocol: After 7 days of treatment, changes in glycated hemoglobin (HbA1c) level, insulin level in mouse blood, and body weight, were measured.

[12] = Pgk1 immobilized on Biacore T200 chip, read-out: Affinity

Nc1nc(N2CCN(C(=O)[C@H]3CCCO3)CC2)cc2cc3c(cc12)CCO3 [Compound T5]
Kd [1, 12]: 273 µM | Rmax [1]: 86 RU

Nc1nc(N2CCN(C(=O)C3CCCC3)CC2)cc2cc3c(cc12)OCO3 [Compound T7]
Kd [1, 12]: 878 µM

Nc1nc(N2CCN(C(=O)c3ccco3)CC2)cc2cc3c(cc12)OCO3 [Compound T11]
Kd [1, 12]: > 1000 µM | Rmax [1]: None | activity in increasing cellular ATP [2]: no such activity of increasing cellular ATP

Nc1nc(N2CCN(C(=O)[C@@H]3CCCO3)CC2)cc2cc3c(cc12)OCO3 [Compound T2]
motor ability (rotarod) ([3]; three doses 0.1 mg/Kg, 0.3 mg/Kg and 1 mg/Kg daily): exerted protective effects | Kd [1, 12]: 449 µM | tyrosine hydroxylase protein levels / effect on dopaminergic neurons [4]: protective effect on dopaminergic neurons

CC1(C)Oc2cc3cc(N4CCN(C(=O)[C@H]5CCCO5)CC4)nc(N)c3cc2O1 [Compound T4]
Kd [1, 12]: 725 µM | Rmax [1]: 75 RU

liraglutide
hypoglycemic effect (blood glucose) ([5]; 0.6 mg/Kg intraperitoneally): optimal hypoglycemic effect

CC1Oc2cc3cc(N4CCN(C(=O)[C@H]5CCCO5)CC4)nc(N)c3cc2O1 (some centres unmarked) [Compound T3]
Kd [1, 12]: 684 µM | Rmax [1]: 93 RU

Nc1nc(N2CCN(C(=O)[C@H]3CCCO3)CC2)cc2cc3c(cc12)OCCO3 [Compound T10]
Kd [1, 12]: > 1000 µM | Rmax [1]: None | activity in increasing cellular ATP [2]: no such activity of increasing cellular ATP

Nc1nc(N2CCN(C(=O)[C@H]3CCCO3)CC2)cc2cc3c(cc12)OCO3 [Compound T1]
Kd [1, 12]: 496 µM

Nc1nc(N2CCN(C(=O)[C@H]3CCCN3)CC2)cc2cc3c(cc12)OCO3 [Compound T8]
Kd [1, 12]: 473 µM | Rmax [1]: 87 RU

Nc1nc(N2CCN(C(=O)[C@@H]3CCCN3)CC2)cc2cc3c(cc12)OCO3 [Compound T9]
Kd [1, 12]: 811 µM | Rmax [1]: 87 RU

COc1cc2cc(N3CCN(C(=O)C4CCCO4)CC3)nc(N)c2cc1OC (centres unmarked) [TZ-md]
effect of activating Pgk1 [6]: still retains the effect of activating Pgk1 | inhibition of the α1 adrenergic receptor [7]: does not inhibit the α1 adrenergic receptor

Nc1ncnc2c1ncn2[C@@H]1O[C@H](COP(=O)(O)OP(=O)(O)O)[C@@H](O)[C@H]1O [ADP, reference compound]
Rmax [1]: 35 RU | Kd ([1]; unit inferred, read-out: KD value): 337 µM

COc1cc2nc(N3CCN(C(=O)C4CCCO4)CC3)nc(N)c2cc1OC (centres unmarked) [Terazosin, terazosin, reference compound]
motor ability (rotarod) ([3]; 0.1 mg/Kg daily): improved the motor ability | tyrosine hydroxylase protein levels / effect on dopaminergic neurons [4]: protective effect on dopaminergic neurons | cell growth [2]: tendency to inhibit cell growth | optimal dose (cellular ATP levels) [2]: 10 µM | inhibition of Pgk1 enzymatic activity ([8]; high concentration, 100 µM): can inhibit Pgk1 enzymatic activity | optimal concentration for activating Pgk1 [8]: 1 µM | hypoglycemic effect (blood glucose) [9]: did not exhibit a hypoglycemic effect

Nc1nc(N2CCN(C(=O)[C@H]3CCCO3)CC2)cc2cc3c(cc12)OCC3 [Compound T6]
Kd [1, 12]: 375 µM | cell growth [2]: tendency to inhibit cell growth | optimal dose (cellular ATP levels) [2]: 50 µM | basal respiratory rate [10]: absent | maximum respiratory rate [10]: absent | inhibition of Pgk1 enzymatic activity ([8]; all different concentrations tested): none of the concentrations can inhibit Pgk1 | optimal concentration for activating Pgk1 [8]: 0.1 µM | body weight [11]: significant decrease in body weight | glycated hemoglobin (HbA1c) level ([11]; terazosin 0.3 mg/kg, metformin 350 mg/kg, versus control group): decrease | hypoglycemic effect (blood glucose) ([5]; high concentration 0.5 mg/kg intraperitoneally): significant hypoglycemic effects | hypoglycemic effect (blood glucose) ([5]; low concentration 0.1 mg/kg intraperitoneally): significant hypoglycemic effects
